Source: US11980625B2, “Ganaxolone for use in treating tuberous sclerosis complex” (Marinus Pharmaceuticals, Inc., priority 2019, dated 2024)

Experiments:
[1] = Solubility of ganaxolone; type: physicochemical
Description: Ganaxolone is insoluble in water. Its solubilities in 95% alcohol, propylene glycol and polyethylene glycol are 13 mg/mL, 3.5 mg/mL and 3.1 mg/mL, respectively.
The pregnenolone neurosteroid (e.g., ganaxolone) formulations suitable may also be administered parenterally. In such embodiments, the formulations are suitable for intramuscular, subcutaneous, or intravenous injection may comprise physiologically acceptable sterile aqueous or non-aqueous solutions, dispersions, suspensions or emulsions, and sterile powders for reconstitution into sterile injectable solutions or dispersions. Examples of suitable aqueous and non-aqueous carriers, diluents, solvents, or vehicles including water, ethanol, polyols (propylene glycol, polyethylene-glycol, glycerol, cremophor and the like), suitable mixtures thereof, vegetable oils (such as olive oil) and injectable organic esters such as ethyl oleate. Additionally, Ganaxolone can be dissolved at concentrations of >1 mg/ml using water soluble beta cyclodextrins (e.g. beta-sulfobutyl-cyclodextrin and 2-hydroxypropylbetacyclodextrin). A particularly suitable cyclodextrin is a substituted-β-cyclodextrin is Captisol®. Proper fluidity can be maintained, for example, by the use of a coating such as lecithin, by the maintenance of the required particle size in the case of dispersions, and by the use of surfactants. […]

[2] = Auto-induction in animals; type: in vivo, mouse, rat, dogs
[3] = Excretion of radioactivity; type: in vivo; conditions: all species
Source text: Most excreted radioactivity in all species is via faeces (>70%) with the remaining excreted in urine.

[4] = test system: rats and dogs; test: Toxicology studies (oral and IV programmes); type: in vivo
Description: (§1) When given IV to rats and dogs, the main dose limiting toxicity finding was sedation. The no observed adverse effect level (NOAEL) after IV dosing in rats for 14 days was established at 42 mg/kg/day for males and 30 mg/kg/day for females. The NOAEL in dog after administration of ganaxolone by IV bolus followed by continuous IV infusion for 28 days was 7.20 mg/kg/day, which corresponded to a steady-state concentration of approximately 330 ng/mL and 333 ng/mL. There were no findings in a local tolerance study in rabbits.

[5] = test system: rabbits; test: Local tolerance study in rabbits; type: in vivo
Description: as §1

[6] = test system: rats or mice; test: Reproductive and developmental toxicity; type: in vivo
[7] = test system: individuals with a confirmed PCDH19 mutation (PCDH19-related epilepsy); test: Open-label study in individuals with PCDH19 mutation, seizure frequency and Allo-S biomarker; type: in vivo, human
Description: FIG. 1 depicts baseline endogenous allopregnenolone-sulfate (“Allo-S”) levels in female patients with PCDH19-related epilepsy stratified by responder vs. non-responder. When stratifying patients with allopregnanolone-sulfate (Allo-S) levels <2.5 ng mL-1, a 50% median reduction in seizure frequency (n=7) compared to baseline was observed. This analysis was conducted retrospectively in a small, open label cohort.
Individuals (n=11) with a confirmed PCDH19 mutation and minimum seizure burden were enrolled between May 2015 and November 2015 at six centers in the U.S. and Italy. Seizure frequency change (%) was assessed as the primary endpoint and a responder was defined as having a 25% or greater decrease in seizure rate. Plasma neurosteroid levels were quantified using a previously published GC/MS method (doi:10.1016/50028-3908(99)00149-5). In two cases, baseline neurosteroid levels were not measured.

[8] = test system: patients with CDKL5 deficiency disorder (CDD); test: Preliminary PK/PD analysis of phase 3 trial in CDKL5 deficiency disorder (CDD); type: in vivo, human
Source text: Global, randomized, double-blind, placebo-controlled phase 3 clinical trial to assess the safety and efficacy of adjunctive ganaxolone for the treatment of seizures associated with CDD. Patients aged 2 to 21 years with a pathogenic or likely pathogenic mutation of the CDKL5 gene, neurodevelopmental impairment, and seizures refractory to treatment with at least 2 prior antiseizure medications who experienced at least 16 seizures per 28 days during the 2 months prior to screening were eligible to enroll. Study consisted of a 6-week baseline followed by a 17-week double-blind phase (ganaxolone or placebo, 1:1). The dose of ganaxolone 50 mg/mL suspension was titrated over 4 weeks to 63 mg/kg/day (21 mg/kg TID), not to exceed 1800 mg/d (600 mg TID), or to the maximum tolerated dose. Blood draws for PK analysis were scheduled to occur at visit 3 (week 5), visit 4 (week 9), and visit 5 (week 17).
Mean ganaxolone concentration was calculated for each subject using available results from up to three laboratory determinations during the double-blind phase. Linear regression was conducted using arithmetic- and natural logarithm-transformed percent reduction in major motor seizures (loge [percent reduction+100]) as dependent variable and natural logarithm-transformed mean ganaxolone concentration as the single explanatory variable. Regression diagnostics included examination of residual and normal probability plots and determination of outliers and influential values. Cases with standardized residuals >2 or <−2 were excluded from the model and the regression was repeated.
The resulting sample was utilized in determination of a Pearson correlation coefficient (using log-transformed values). Additionally, percent seizure reduction was compared in three tertiles representing low (N=13), medium (N=13) and high (N=12) mean per subject ganaxolone concentrations using a Kruskal-Wallis test.

[9] = target: human ether-a-go-go related gene (hERG) receptor (Homo sapiens, UniProt Q12809); test: hERG interaction; conditions: measured concentration of 70 nM (n=2)
[10] = target: CYP3A4 (Homo sapiens, UniProt P08684); test: In vitro clearance
Chain of CYP3A4 (P08684 whole entry): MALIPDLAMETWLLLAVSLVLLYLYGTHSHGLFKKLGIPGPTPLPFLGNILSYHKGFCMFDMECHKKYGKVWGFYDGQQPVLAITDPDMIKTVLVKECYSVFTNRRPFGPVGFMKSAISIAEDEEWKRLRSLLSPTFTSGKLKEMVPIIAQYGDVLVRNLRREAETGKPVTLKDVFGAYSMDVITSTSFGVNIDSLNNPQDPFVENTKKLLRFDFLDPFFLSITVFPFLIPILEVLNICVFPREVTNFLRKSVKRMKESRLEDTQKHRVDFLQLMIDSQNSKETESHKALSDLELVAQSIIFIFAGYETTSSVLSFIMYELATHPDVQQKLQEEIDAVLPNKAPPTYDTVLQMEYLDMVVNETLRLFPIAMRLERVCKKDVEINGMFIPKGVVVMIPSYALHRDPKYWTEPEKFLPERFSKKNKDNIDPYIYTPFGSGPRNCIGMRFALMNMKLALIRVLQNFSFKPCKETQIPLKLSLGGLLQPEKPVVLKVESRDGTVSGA

Chain of human ether-a-go-go related gene (hERG) receptor (Q12809 whole entry): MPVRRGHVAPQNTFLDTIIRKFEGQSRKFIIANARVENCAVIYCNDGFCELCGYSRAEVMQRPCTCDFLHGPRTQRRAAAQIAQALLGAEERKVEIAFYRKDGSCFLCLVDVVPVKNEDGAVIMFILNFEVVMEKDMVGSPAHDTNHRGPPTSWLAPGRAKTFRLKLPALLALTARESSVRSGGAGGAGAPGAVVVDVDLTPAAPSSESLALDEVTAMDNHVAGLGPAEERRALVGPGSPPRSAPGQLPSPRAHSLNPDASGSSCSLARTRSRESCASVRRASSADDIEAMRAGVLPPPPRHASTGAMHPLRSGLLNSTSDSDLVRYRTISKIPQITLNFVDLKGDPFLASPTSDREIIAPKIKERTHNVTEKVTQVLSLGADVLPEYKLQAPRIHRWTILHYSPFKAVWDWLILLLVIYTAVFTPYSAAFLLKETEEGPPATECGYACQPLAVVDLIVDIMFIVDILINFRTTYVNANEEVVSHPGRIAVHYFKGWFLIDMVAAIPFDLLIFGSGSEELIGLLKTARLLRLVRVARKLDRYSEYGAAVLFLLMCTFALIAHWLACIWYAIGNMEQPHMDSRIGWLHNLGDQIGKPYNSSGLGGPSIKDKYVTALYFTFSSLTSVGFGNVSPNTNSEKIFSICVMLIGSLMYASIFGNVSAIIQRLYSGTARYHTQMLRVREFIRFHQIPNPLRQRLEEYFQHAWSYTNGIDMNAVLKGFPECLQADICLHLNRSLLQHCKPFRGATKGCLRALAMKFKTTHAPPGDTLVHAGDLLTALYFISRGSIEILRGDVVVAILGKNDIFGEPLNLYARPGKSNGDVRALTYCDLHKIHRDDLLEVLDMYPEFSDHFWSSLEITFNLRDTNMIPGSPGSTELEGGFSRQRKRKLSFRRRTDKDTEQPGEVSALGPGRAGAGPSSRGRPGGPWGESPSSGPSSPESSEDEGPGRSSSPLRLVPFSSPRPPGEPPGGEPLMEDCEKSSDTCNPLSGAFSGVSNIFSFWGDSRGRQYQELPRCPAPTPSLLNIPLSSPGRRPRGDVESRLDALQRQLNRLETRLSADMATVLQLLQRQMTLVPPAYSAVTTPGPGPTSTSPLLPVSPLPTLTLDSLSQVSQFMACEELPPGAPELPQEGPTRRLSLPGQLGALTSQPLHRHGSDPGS

**Q.** What does the source list for `CC(=O)[C@H]1CC[C@H]2[C@@H]3CC[C@H]4C[C@](C)(O)CC[C@]4(C)[C@H]3CC[C@]12C` [Ganaxolone, 3α-hydroxy-3β-methyl-5α-pregnan-20-one]?
**A.** solubility ([1]; aqueous with cosolvent or surfactant or cyclodextrin, beta-sulfobutyl-cyclodextrin, 2-hydroxypropylbetacyclodextrin, read-out: concentration dissolved using water soluble beta cyclodextrins): > 1000 µg/mL; solubility in water ([1]; water): insoluble; auto-induction ([2]; dogs): no auto-induction; auto-induction ([2]; mouse and rat): Auto-induction has also been observed; excreted radioactivity via faeces [3]: > 70%; main dose limiting toxicity finding ([4]; IV to rats and dogs): sedation; most common effect in toxicology studies ([4]; in vivo): dose-related sedation; target organ or systemic toxicity ([4]; oral and IV programmes, single- or multiple-dose): little evidence of target organ or systemic toxicity; local tolerance [5]: no findings; development of treated neonatal rats ([6]; neonatal rats, expected signs of sedation): did not affect development; fertility and early embryonic development ([6]; rats): no effects on fertility and early embryonic development; teratogenicity ([6]; rats or mice): not teratogenic; median decrease in 28-day seizure frequency (all seizure types) from baseline ([7]; all-comers (n=11)): 26%; seizure frequency at 6 months compared to baseline ([7]; biomarker-negative (high Allo-S) group, p=0.25, Wilcoxon): did not improve; median % change seizure rate ([7]; biomarker-negative (n=4, Allo-S >2,500 pg mL-1)): 247%; median % change seizure rate ([7]; biomarker-positive (n=7, Allo-S<2,500 pg mL-1)): −53.9%; seizure frequency at 6 months compared to baseline ([7]; biomarker-positive group, p=0.02, Wilcoxon): significantly improved; median reduction in seizure frequency compared to baseline ([7]; patients with Allo-S levels <2.5 ng mL-1 (n=7), FIG. 1): 50%; Mean percentage change in major motor seizures (per 28 days) ([8]; High tertile (n = 12)): −44.3%; Median percentage change in major motor seizures (per 28 days) ([8]; High tertile (n = 12)): −46.0%; Mean percentage change in major motor seizures (per 28 days) ([8]; Low tertile (n = 13)): −6.5%; Median percentage change in major motor seizures (per 28 days) ([8]; Low tertile (n = 13)): −8.4%; Mean percentage change in major motor seizures (per 28 days) ([8]; Median tertile (n = 13)): −30.3%; Median percentage change in major motor seizures (per 28 days) ([8]; Median tertile (n = 13)): −39.5%; seizure reduction predicted at a plasma concentration of approximately 100 ng/mL ([8]; back-transformation of log values, CDD participants): approximately 40%; plasma ganaxolone level (mean+standard deviation) ([8]; forty-four participants, 50 mg/mL suspension titrated to 63 mg/kg/day (max 1800 mg/d) TID): 103.5+79.2 ng/mL; interaction with hERG receptor [9]: did not interact; enzyme driving clearance [10]: driven mainly by CYP3A4
